Assay results published in US20250059171A1 (Hoffmann-La Roche Inc., priority 2021, published 2025).

Key:
SARS-CoV-2 3CLpro = SARS-CoV-2 3CLpro (Severe acute respiratory syndrome coronavirus 2, UniProt P0DTD1); assay: biochemical
SARS-CoV 3CLpro = SARS-CoV 3CLpro (Severe acute respiratory syndrome coronavirus, UniProt P0C6X7); assay: biochemical
HCoV-229E 3CLpro = HCoV-229E 3CLpro (Human coronavirus 229E, UniProt P0C6X1); assay: HCoV-229E 3CLpro inhibition assay (FRET); format: biochemical
MERS-CoV 3CLpro = MERS-CoV 3CLpro (Middle East respiratory syndrome-related coronavirus, UniProt K9N7C7); assay: biochemical
Chain of MERS-CoV 3CLpro (K9N7C7 3248-3553): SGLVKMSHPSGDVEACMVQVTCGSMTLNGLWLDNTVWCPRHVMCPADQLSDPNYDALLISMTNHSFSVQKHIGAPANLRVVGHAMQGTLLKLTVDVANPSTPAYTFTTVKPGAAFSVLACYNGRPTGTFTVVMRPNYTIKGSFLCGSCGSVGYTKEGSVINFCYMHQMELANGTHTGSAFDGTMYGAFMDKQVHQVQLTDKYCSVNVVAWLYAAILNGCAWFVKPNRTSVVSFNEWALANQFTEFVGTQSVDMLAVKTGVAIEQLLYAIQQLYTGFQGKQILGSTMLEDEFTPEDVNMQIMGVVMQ

Chain of HCoV-229E 3CLpro (P0C6X1 2966-3267): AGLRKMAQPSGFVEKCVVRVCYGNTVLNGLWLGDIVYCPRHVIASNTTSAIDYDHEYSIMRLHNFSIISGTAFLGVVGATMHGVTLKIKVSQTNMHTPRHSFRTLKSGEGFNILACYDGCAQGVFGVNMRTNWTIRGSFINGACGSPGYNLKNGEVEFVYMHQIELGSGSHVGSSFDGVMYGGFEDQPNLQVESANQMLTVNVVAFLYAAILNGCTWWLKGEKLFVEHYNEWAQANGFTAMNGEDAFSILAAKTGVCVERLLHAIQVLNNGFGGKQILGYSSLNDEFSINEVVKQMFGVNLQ

With CCC(C)(C)[C@H](NC(=O)C(F)F)C(=O)N1C[C@H]2[C@@H]([C@H]1C(=O)NN(C[C@@H]1CCNC1=O)C(=O)[C@H](F)Cl)C2(C)C [Example 144, N-[(1S)-1-[(1R,2S,5S)-2-[[[(2R)-2-chloro-2-fluoro-acetyl]-[[(3S)-2-oxopyrrolidin-3-yl]methyl]amino]carbamoyl]-6,6-dimethyl-3-azabicyclo[3.1.0]hexane-3-carbonyl]-2,2-dimethyl-butyl]-2,2-difluoro-acetamide] as the molecule, how does the IC50 (SARS-CoV-2 3CLpro) read?
Its IC50 is 11 nM.

And the IC50 (SARS-CoV 3CLpro)?
The IC50 was 15 nM.

And the IC50 (HCoV-229E 3CLpro)?
Its IC50 is 33 nM.

What about the IC50 (MERS-CoV 3CLpro) of the same molecule?
Its IC50 is 112 nM.

CC[C@H](C)[C@H](NC(=O)[C@@H](F)Cl)C(=O)N1CC(C)(C)C[C@H]1C(=O)NN(C[C@@H]1CCNC1=O)C(=O)[C@@H](F)Cl [Example 187, (2S)-2-chloro-N-[(1S,2S)-1-[(2S)-2-[[[(2S)-2-chloro-2-fluoro-acetyl]-[[(3S)-2-oxopyrrolidin-3-yl]methyl]amino]carbamoyl]-4,4-dimethyl-pyrrolidine-1-carbonyl]-2-methyl-butyl]-2-fluoro-acetamide] was tested. Which IC50 (SARS-CoV-2 3CLpro) did it give?
The IC50 was 24 nM.

And the IC50 (SARS-CoV 3CLpro)?
Its IC50 is 43 nM.

What about the IC50 (HCoV-229E 3CLpro) of the same molecule?
Its IC50 is 36 nM.

What about the IC50 (MERS-CoV 3CLpro) of the same molecule?
The IC50 was 167 nM.

What does the source list for CC(C)(C)[C@H](NC(=O)[C@H]1CC1(F)F)C(=O)N1C[C@@H]2CCC[C@@H]2[C@H]1C(=O)NN(C[C@@H]1CCNC1=O)C(=O)[C@H](F)Cl [Example 100, (1R)—N-[(1S)-1-[(3S,3aS,6aR)-3-[[[(2R)-2-chloro-2-fluoro-acetyl]-[[(3S)-2-oxopyrrolidin-3-yl]methyl]amino]carbamoyl]-3,3a,4,5,6,6a-hexahydro-1H-cyclopenta[c]pyrrole-2-carbonyl]-2,2-dimethyl-propyl]-2,2-difluoro-cyclopropanecarboxamide]?
IC50 (SARS-CoV-2 3CLpro): 8 nM; IC50 (SARS-CoV 3CLpro): 14 nM; IC50 (HCoV-229E 3CLpro): 32 nM; IC50 (MERS-CoV 3CLpro): 77 nM

How did the IC50 (SARS-CoV-2 3CLpro) turn out when CC[C@H](C)[C@H](NC(=O)C(C)C)C(=O)N1C[C@H]2[C@@H]([C@H]1C(=O)NN(C[C@@H]1CCNC1=O)C(=O)[C@H](F)Cl)C2(C)C [Example 54, N-[(1S,2S)-1-[(1R,2S,5S)-2-[[[(2R)-2-chloro-2-fluoro-acetyl]-[[(3S)-2-oxopyrrolidin-3-yl]methyl]amino]carbamoyl]-6,6-dimethyl-3-azabicyclo[3.1.0]hexane-3-carbonyl]-2-methyl-butyl]-2-methyl-propanamide] was run?
The IC50 was 9 nM.

What about the IC50 (SARS-CoV 3CLpro) of the same molecule?
Its IC50 is 12 nM.

And the IC50 (HCoV-229E 3CLpro)?
Its IC50 is 24 nM.

And the IC50 (MERS-CoV 3CLpro)?
The IC50 was 56 nM.

CC(C)(C)[C@H](NC(=O)[C@@H]1CC1(F)F)C(=O)N1C[C@H](C(F)(F)F)C[C@H]1C(=O)NN(C[C@@H]1CCNC1=O)C(=O)[C@H](F)Cl [Example 158, (1S)—N-[(1S)-1-[(2S,4R)-2-[[[(2R)-2-chloro-2-fluoro-acetyl]-[[(3S)-2-oxopyrrolidin-3-yl]methyl]amino]carbamoyl]-4-(trifluoromethyl)pyrrolidine-1-carbonyl]-2,2-dimethyl-propyl]-2,2-difluoro-cyclopropanecarboxamide] was tested. Which IC50 (SARS-CoV-2 3CLpro) did it give?
The IC50 was 11 nM.

And the IC50 (SARS-CoV 3CLpro)?
Its IC50 is 17 nM.

And the IC50 (HCoV-229E 3CLpro)?
The IC50 was 34 nM.

And the IC50 (MERS-CoV 3CLpro)?
Its IC50 is 80 nM.

CC[C@H](C)[C@H](NC(=O)C1CC1)C(=O)N1C[C@H]2[C@@H]([C@H]1C(=O)NN(C[C@@H]1CCNC1=O)C(=O)[C@H](F)Cl)C2(C)C [Example 57, N-[(1S,2S)-1-[(1R,2S,5S)-2-[[[(2R)-2-chloro-2-fluoro-acetyl]-[[(3S)-2-oxopyrrolidin-3-yl]methyl]amino]carbamoyl]-6,6-dimethyl-3-azabicyclo[3.1.0]hexane-3-carbonyl]-2-methyl-butyl]cyclopropanecarboxamide] was tested. Which IC50 (SARS-CoV-2 3CLpro) did it give?
The IC50 was 11 nM.

And the IC50 (SARS-CoV 3CLpro)?
Its IC50 is 13 nM.

What about the IC50 (HCoV-229E 3CLpro) of the same molecule?
Its IC50 is 20 nM.

And the IC50 (MERS-CoV 3CLpro)?
The IC50 was 62 nM.

Which IC50 (SARS-CoV-2 3CLpro) does the source give for CC[C@H](C)[C@H](NC(=O)C(F)(F)F)C(=O)N1C[C@H]2[C@@H]([C@H]1C(=O)NN(C[C@@H]1CCNC1=O)C(=O)[C@@H](F)Cl)C2(C)C [Example 107, N-[(1S,2S)-1-[(1R,2S,5S)-2-[[[(2S)-2-chloro-2-fluoro-acetyl]-[[(3S)-2-oxopyrrolidin-3-yl]methyl]amino]carbamoyl]-6,6-dimethyl-3-azabicyclo[3.1.0]hexane-3-carbonyl]-2-methyl-butyl]-2,2,2-trifluoro-acetamide] here?
The IC50 was 18 nM.

What about the IC50 (SARS-CoV 3CLpro) of the same molecule?
The IC50 was 25 nM.

What about the IC50 (HCoV-229E 3CLpro) of the same molecule?
Its IC50 is 40 nM.

And the IC50 (MERS-CoV 3CLpro)?
The IC50 was 111 nM.

Which results are given for CC[C@H](C)[C@H](NC(=O)[C@H](F)Cl)C(=O)N1C[C@H]2[C@@H]([C@H]1C(=O)NN(C[C@@H]1CCNC1=O)C(=O)[C@H](F)Cl)C2(C)C [Example 185, (2R)-2-chloro-N-[(1S,2S)-1-[(1R,2S,5S)-2-[[[(2R)-2-chloro-2-fluoro-acetyl]-[[(3S)-2-oxopyrrolidin-3-yl]methyl]amino]carbamoyl]-6,6-dimethyl-3-azabicyclo[3.1.0]hexane-3-carbonyl]-2-methyl-butyl]-2-fluoro-acetamide]?
IC50 (SARS-CoV-2 3CLpro): 11 nM; IC50 (SARS-CoV 3CLpro): 21 nM; IC50 (HCoV-229E 3CLpro): 40 nM; IC50 (MERS-CoV 3CLpro): 99 nM

For CC(C)(C)[C@H](NC(=O)[C@@H]1CC1(F)F)C(=O)N1C[C@H]2[C@@H]([C@H]1C(=O)NN(C[C@@H]1CCNC1=O)C(=O)[C@H](F)Cl)C2(C)C [Example 92, (1S)—N-[(1S)-1-[(1R,2S,5S)-2-[[[(2R)-2-chloro-2-fluoro-acetyl]-[[(3S)-2-oxopyrrolidin-3-yl]methyl]amino]carbamoyl]-6,6-dimethyl-3-azabicyclo[3.1.0]hexane-3-carbonyl]-2,2-dimethyl-propyl]-2,2-difluoro-cyclopropanecarboxamide], which IC50 (SARS-CoV-2 3CLpro) is on record?
The IC50 was 8 nM.

And the IC50 (SARS-CoV 3CLpro)?
The IC50 was 18 nM.

And the IC50 (HCoV-229E 3CLpro)?
The IC50 was 23 nM.

What about the IC50 (MERS-CoV 3CLpro) of the same molecule?
The IC50 was 57 nM.

With CC[C@H](C)[C@H](NC(=O)C(F)(F)F)C(=O)N1C[C@@H]2CCC[C@@H]2[C@H]1C(=O)NN(C[C@@H]1CCNC1=O)C(=O)[C@H](F)Cl [Example 48, N-[(1S,2S)-1-[(3S,3aS,6aR)-3-[[[(2R)-2-chloro-2-fluoro-acetyl]-[[(3S)-2-oxopyrrolidin-3-yl]methyl]amino]carbamoyl]-3,3a,4,5,6,6a-hexahydro-1H-cyclopenta[c]pyrrole-2-carbonyl]-2-methyl-butyl]-2,2,2-trifluoro-acetamide] as the molecule, how does the IC50 (SARS-CoV-2 3CLpro) read?
Its IC50 is 12 nM.

What about the IC50 (SARS-CoV 3CLpro) of the same molecule?
Its IC50 is 12 nM.

And the IC50 (HCoV-229E 3CLpro)?
The IC50 was 22 nM.

What about the IC50 (MERS-CoV 3CLpro) of the same molecule?
Its IC50 is 56 nM.

What does the source list for CC(C)(C)[C@H](NC(=O)C1CC1)C(=O)N1C[C@H]2[C@@H]([C@H]1C(=O)NN(C[C@@H]1CCNC1=O)C(=O)[C@H](F)Cl)C2(C)C [Example 12, N-[(1S)-1-[(1R,2S,5S)-2-[[[(2R)-2-chloro-2-fluoro-acetyl]-[[(3S)-2-oxopyrrolidin-3-yl]methyl]amino]carbamoyl]-6,6-dimethyl-3-azabicyclo[3.1.0]hexane-3-carbonyl]-2,2-dimethyl-propyl]cyclopropanecarboxamide]?
IC50 (SARS-CoV-2 3CLpro): 15 nM; IC50 (SARS-CoV 3CLpro): 17 nM; IC50 (HCoV-229E 3CLpro): 26 nM; IC50 (MERS-CoV 3CLpro): 106 nM

CC[C@H](C)[C@H](NC(=O)C1(F)CC1)C(=O)N1C[C@@H]2CCC[C@@H]2[C@H]1C(=O)NN(C[C@@H]1CCNC1=O)C(=O)[C@H](F)Cl [Example 79, N-[(1S,2S)-1-[(3S,3aS,6aR)-3-[[[(2R)-2-chloro-2-fluoro-acetyl]-[[(3S)-2-oxopyrrolidin-3-yl]methyl]amino]carbamoyl]-3,3a,4,5,6,6a-hexahydro-1H-cyclopenta[c]pyrrole-2-carbonyl]-2-methyl-butyl]-1-fluoro-cyclopropanecarboxamide] was tested. Which IC50 (SARS-CoV-2 3CLpro) did it give?
Its IC50 is 7.1 nM.

And the IC50 (SARS-CoV 3CLpro)?
Its IC50 is 11 nM.

What about the IC50 (HCoV-229E 3CLpro) of the same molecule?
The IC50 was 39 nM.

And the IC50 (MERS-CoV 3CLpro)?
The IC50 was 114 nM.

What does the source list for CC(C)(C)[C@H](NC(=O)C(F)(F)F)C(=O)N1CCC(C)(C)[C@@H]1C(=O)NN(C[C@@H]1CCNC1=O)C(=O)[C@H](F)Cl [Example 155b, N-[(1S)-1-[(2R)-2-[[[(2R)-2-chloro-2-fluoro-acetyl]-[[(3S)-2-oxopyrrolidin-3-yl]methyl]amino]carbamoyl]-3,3-dimethyl-pyrrolidine-1-carbonyl]-2,2-dimethyl-propyl]-2,2,2-trifluoro-acetamide]?
IC50 (SARS-CoV-2 3CLpro): 1570 nM; IC50 (SARS-CoV 3CLpro): 2440 nM; IC50 (HCoV-229E 3CLpro): > 10000 nM; IC50 (MERS-CoV 3CLpro): > 10000 nM

How did the IC50 (SARS-CoV-2 3CLpro) turn out when CSCC[C@H](NC(=O)C(F)(F)F)C(=O)N1C[C@H]2[C@@H]([C@H]1C(=O)NN(C[C@@H]1CCNC1=O)C(=O)[C@H](F)Cl)C2(C)C [Example 69, N-[(1S)-1-[(1R,2S,5S)-2-[[[(2R)-2-chloro-2-fluoro-acetyl]-[[(3S)-2-oxopyrrolidin-3-yl]methyl]amino]carbamoyl]-6,6-dimethyl-3-azabicyclo[3.1.0]hexane-3-carbonyl]-3-methylsulfanyl-propyl]-2,2,2-trifluoro-acetamide] was run?
The IC50 was 11 nM.

And the IC50 (SARS-CoV 3CLpro)?
The IC50 was 28 nM.

What about the IC50 (HCoV-229E 3CLpro) of the same molecule?
The IC50 was 53 nM.

What about the IC50 (MERS-CoV 3CLpro) of the same molecule?
Its IC50 is 249 nM.

With CCC(C)(C)[C@H](NC(=O)C(C)F)C(=O)N1C[C@H]2[C@@H]([C@H]1C(=O)NN(C[C@@H]1CCNC1=O)C(=O)[C@@H](F)Cl)C2(C)C (mixture of isomers) [Example 146, Rac-2-fluoro-N-[(1S)-2,2-dimethyl-1-[(1R,2S,5S)-6,6-dimethyl-2-[[[(2S)-2-chloro-2-fluoro-acetyl]-[[(3S)-2-oxopyrrolidin-3-yl]methyl]amino]carbamoyl]-3-azabicyclo[3.1.0]hexane-3-carbonyl]butyl]propanamide] as the molecule, how does the IC50 (SARS-CoV-2 3CLpro) read?
Its IC50 is 16 nM.

What about the IC50 (SARS-CoV 3CLpro) of the same molecule?
The IC50 was 23 nM.

And the IC50 (HCoV-229E 3CLpro)?
The IC50 was 69 nM.

What about the IC50 (MERS-CoV 3CLpro) of the same molecule?
The IC50 was 151 nM.

CCC(=O)N[C@H](C(=O)N1C[C@@H]2CCC[C@@H]2[C@H]1C(=O)NN(C[C@@H]1CCNC1=O)C(=O)[C@H](F)Cl)C(C)(C)C [Example 32, N-[(1S)-1-[(3S,3aS,6aR)-3-[[[(2R)-2-chloro-2-fluoro-acetyl]-[[(3S)-2-oxopyrrolidin-3-yl]methyl]amino]carbamoyl]-3,3a,4,5,6,6a-hexahydro-1H-cyclopenta[c]pyrrole-2-carbonyl]-2,2-dimethyl-propyl]propanamide] was tested. Which IC50 (SARS-CoV-2 3CLpro) did it give?
Its IC50 is 7 nM.

What about the IC50 (SARS-CoV 3CLpro) of the same molecule?
The IC50 was 10 nM.

And the IC50 (HCoV-229E 3CLpro)?
Its IC50 is 23 nM.

What about the IC50 (MERS-CoV 3CLpro) of the same molecule?
Its IC50 is 80 nM.
